Experiment [1] concerns LRRK2 mediated phosphorylation of Rab10 at Thr73. The experiment is described as follows: Rab10 Thr73 phospho-immunoblot in wild-type MEFs. The experiment is classed as cell-based, mouse. Conditions: for pIC50: Mus musculus. Here is the method:
Wild-type and homozygous LRRK2 [R1441C] […] All cells were grown at 37°C, 5% (by vol) CO2 in a humidified atmosphere and regularly tested for mycoplasma contamination.
Inhibitors were dissolved in dimethyl sulfoxide (DMSO) (Sigma, #D2650). The inhibitors were diluted 1000× into cell medium. The equivalent volume of DMSO was added to the minus inhibitor controls. Experiments were performed in six-well plates, 10 cm dishes or 15 cm dishes depending on the amount of cell extract required.
Lysates were incubated on ice for 30 min and clarified by centrifugation at 20 800×g at 4°C for 20 min. Supernatants were quantified by Bradford assay (Bio-Rad Protein Assay Dye Reagent Concentrate #5000006) and samples prepared in 1× lithium dodecyl sulfate sample buffer final concentration (NuPage LDS Sample buffer 4× Invitrogen, #NP0008). When not deployed immediately, lysates were snap-frozen in liquid nitrogen and stored at −80°C until use.
Cell extracts were mixed with a quarter of a volume of NuPage LDS Sample buffer 4× Invitrogen and heated at 95°C for 5 min. […] At the end of electrophoresis, proteins were electrophoretically transferred onto the nitrocellulose membrane (GE Healthcare, Amersham Protran Supported 0.45 µm NC) at 100 V for 90 min on ice in the transfer buffer (48 mM Tris–HCl and 39 mM glycine supplemented with 20% methanol). Transferred membrane was blocked with 5% (w/v) skim milk powder dissolved in TBS-T [20 mM Tris–HCl, pH 7.5, 150 mM NaCl and 0.1% (v/v) Tween 20] at room temperature for 1 h. The membrane was typically cropped into three pieces, namely the ‘top piece’ (from the top of the membrane to 75 kDa), the ‘middle piece’ (between 75 and 30 kDa) and the ‘bottom piece’ (from 30 kDa to the bottom of the membrane). All primary antibodies were used at 1 μg/ml final concentration and incubated in TBS-T containing 5% (by mass) bovine serum albumin with exception of α-tubulin and GAPDH antibodies that were diluted 1 : 5000 and 1 : 2000, respectively. The top piece was incubated with the indicated rabbit anti-LRRK2 phosphorylation site antibody multiplexed with mouse anti-LRRK2 C-terminus total antibody. The middle piece was incubated with mouse anti-GAPDH or anti-α-tubulin antibody. The bottom pieces were incubated with indicated total and phospho-Rab antibodies. Membranes were incubated in primary antibody overnight at 4°C. Prior to secondary antibody incubation, membranes were washed three times with TBS-T for 10 min each. […] Membranes were washed with TBS-T for three times with a 10 min incubation for each wash. Protein bands were acquired via near infrared fluorescent detection using the Odyssey CLx imaging system and quantified using the Image Studio software.
On the technique in general: In western blotting, separated proteins are transferred to a membrane and probed.

For experiment [2], the system named is LRRK2 Ser935, Ser910, Ser955 and Ser973. The experiment is described as follows: LRRK2 biomarker site phosphorylation in primary human neutrophils. The format is cell-based. To be noted: up to 3 μM. On the procedure: Cell extracts were mixed with a quarter of a volume of NuPage LDS Sample buffer 4× Invitrogen and heated at 95°C for 5 min. […] At the end of electrophoresis, proteins were electrophoretically transferred onto the nitrocellulose membrane (GE Healthcare, Amersham Protran Supported 0.45 µm NC) at 100 V for 90 min on ice in the transfer buffer (48 mM Tris–HCl and 39 mM glycine supplemented with 20% methanol). Transferred membrane was blocked with 5% (w/v) skim milk powder dissolved in TBS-T [20 mM Tris–HCl, pH 7.5, 150 mM NaCl and 0.1% (v/v) Tween 20] at room temperature for 1 h. The membrane was typically cropped into three pieces, namely the ‘top piece’ (from the top of the membrane to 75 kDa), the ‘middle piece’ (between 75 and 30 kDa) and the ‘bottom piece’ (from 30 kDa to the bottom of the membrane). All primary antibodies were used at 1 μg/ml final concentration and incubated in TBS-T containing 5% (by mass) bovine serum albumin with exception of α-tubulin and GAPDH antibodies that were diluted 1 : 5000 and 1 : 2000, respectively. The top piece was incubated with the indicated rabbit anti-LRRK2 phosphorylation site antibody multiplexed with mouse anti-LRRK2 C-terminus total antibody. […] Protein bands were acquired via near infrared fluorescent detection using the Odyssey CLx imaging system and quantified using the Image Studio software. […]

pIC50: −log10 of the molar value. Entries after “also recorded” stand apart in the source; their conditions may differ. Like-named read-outs stand apart in the source and are kept apart here.

As a reminder, the pIC50 is −log10 of the IC50, conventionally taken in molar units.

Regarding `Cc1ccc(C(=O)Nc2ccc(CN3CCN(C)CC3)c(C(F)(F)F)c2)cc1C#Cc1cnc2[nH]ncc2c1` [GZD-824], the pIC50 in experiment [1] (2 h, Figure 4, read-out: IC50 for dephosphorylation of Rab10, wild type MEFs (estimate in text)) is 7.15; in experiment [1] (2 h, wild type MEFs littermate matched to LRRK2[G2019S], 2 h, panel (B), read-out: LRRK2 WT Rab10 pThr73 IC50), 7.18; in experiment [1] (2 h, wild type MEFs littermate matched to LRRK2[R1441C], 2 h, panel (A), read-out: LRRK2 WT Rab10 pThr73 IC50) it was 7.06; in experiment [1] (2 h, wild-type MEFs, 2 h, Figure 2A, read-out: IC50 inhibition of Rab10 phosphorylation) it was roughly 6.52. Besides, in experiment [1] (wild-type MEFs, 1 μM, 2 h), the “Rab10 phosphorylation level after treatment” value was “almost background levels; also recorded: almost basal levels”. The “Rab10 phosphorylation over 24 h time course” value in experiment [1] (wild-type MEFs, 1 μM, 24 h) is on record as “remained suppressed”. The “time to 50% reduction of Rab10 phosphorylation” value in experiment [1] (wild-type MEFs, 1 μM, Figure 2C) is listed as roughly 10 min. The “phosphorylation of Ser935, Ser910, Ser955 and Ser973” value in experiment [2] is on record as “unaffected”.

The values are drawn from PMC8589421, “Impact of Type II LRRK2 inhibitors on signaling and mitophagy” (Biochemical Journal, 2021).
